Results published in ChEMBL document CHEMBL1137324, “Novel selective orally active CRTH2 antagonists for allergic inflammation developed from in silico derived hits” (J Med Chem, 2006).

Legend:
[1] = biological target: T1, Prostaglandin D2 receptor 2 (Homo sapiens, UniProt Q9Y5Y4); assay: Displacement of [3H]PGD2 from human CRTH2 receptor expressed in HEK293 cells; assay type: cell-based
T1 sequence (Q9Y5Y4 whole entry): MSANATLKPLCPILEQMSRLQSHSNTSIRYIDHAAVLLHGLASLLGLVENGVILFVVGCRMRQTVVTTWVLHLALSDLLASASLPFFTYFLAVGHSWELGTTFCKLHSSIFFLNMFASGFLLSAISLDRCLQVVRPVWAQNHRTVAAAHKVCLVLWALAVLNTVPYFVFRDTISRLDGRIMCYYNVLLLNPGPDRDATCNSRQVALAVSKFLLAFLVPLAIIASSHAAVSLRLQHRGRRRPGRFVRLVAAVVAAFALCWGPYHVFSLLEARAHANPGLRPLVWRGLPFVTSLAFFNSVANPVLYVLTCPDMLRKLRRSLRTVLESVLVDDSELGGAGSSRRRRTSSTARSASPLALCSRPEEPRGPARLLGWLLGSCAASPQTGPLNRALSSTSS

[2] = biological target: T1, Prostaglandin D2 receptor 2; assay: Antagonist activity against CRTH2 receptor measured as inhibition of PGD2-induced beta-arrestin translocation in HEK293 cells by BRET assay; assay type: functional, cell-based
Mus musculus = assay: Inhibition of peribronchial eosinophilia in BALB/c mouse at 100 mg/kg, po relative to control; assay type: functional

Question: What does the source list for `COc1ccc(OCC(=O)O)c(C(=O)c2cnn(-c3ccccc3)c2)c1`?
Answer: IC50 [1]: 0.151 µM; IC50 [2]: 4.2 µM

Question: Which results are given for `O=Cc1ccccc1OCC(=O)O`?
Answer: IC50 [1]: 1.97 µM; IC50 [2]: 50 µM

Question: `O=C(O)COc1ccc(Br)cc1CO` was tested. Which IC50 [1] did it give?
Answer: The IC50 was 0.886 µM.

Question: And the IC50 [2]?
Answer: Its IC50 is 6.87 µM.

Question: How did the IC50 [1] turn out when `O=C(O)COc1ccc(F)cc1C(=O)c1cnn(-c2ccccc2)c1` was run?
Answer: The IC50 was 0.108 µM.

Question: What about the IC50 [2] of the same molecule?
Answer: The IC50 was 1.32 µM.

Question: `Cc1ccc(NCC(=O)N/N=C/c2ccccc2OCC(=O)O)cc1` was tested. Which IC50 [1] did it give?
Answer: The IC50 was 3.66 µM.

Question: What about the IC50 [2] of the same molecule?
Answer: The IC50 was 60.2 µM.

Question: Which IC50 [1] does the source give for `CCOC(=O)COc1ccc(Br)cc1C(=O)c1cnn(-c2ccccc2)c1` here?
Answer: Its IC50 is 0.165 µM.

Question: And the IC50 [2]?
Answer: Its IC50 is 3 µM.

Question: Which IC50 [1] does the source give for `O=C(O)COc1ccc(Br)cc1C(=O)c1cnn(-c2cccc(Br)c2)c1` here?
Answer: The IC50 was 0.0034 µM.

Question: And the IC50 [2]?
Answer: The IC50 was 0.031 µM.

Question: Which results are given for `O=C(O)COc1ccccc1/C=N/NC(=O)COc1ccc(Cl)cc1Cl`?
Answer: IC50 [1]: 0.555 µM; IC50 [2]: 6.32 µM

Question: For `O=C(O)COc1ccccc1/C=N/NC(=O)Cn1cnc2ccccc21`, which IC50 [1] is on record?
Answer: Its IC50 is 12.8 µM.

Question: And the IC50 [2]?
Answer: The IC50 was 81.7 µM.

Question: For `CC(C)(C)c1cc(Br)ccc1OCC(=O)O`, which IC50 [1] is on record?
Answer: Its IC50 is 0.061 µM.

Question: And the IC50 [2]?
Answer: The IC50 was 0.423 µM.

Question: How did the IC50 [1] turn out when `O=C(O)COc1ccc(-c2ccc(Cl)cc2)cc1C(=O)c1cnn(-c2ccccc2)c1` was run?
Answer: The IC50 was 0.037 µM.

Question: And the IC50 [2]?
Answer: The IC50 was 0.448 µM.

Question: Which results are given for `COc1ccc(-n2cc(C(=O)c3cc(Br)ccc3OCC(=O)O)cn2)cc1`?
Answer: IC50 [1]: 0.0036 µM; IC50 [2]: 0.053 µM

Question: Which IC50 [1] does the source give for `O=C(O)COc1ccc(Cl)cc1C(=O)c1cnn(-c2ccccc2)c1` here?
Answer: The IC50 was 0.015 µM.

Question: What about the IC50 [2] of the same molecule?
Answer: Its IC50 is 0.185 µM.

Question: Which results are given for `Cc1ccc(OCC(=O)O)c(C(=O)c2cnn(-c3ccccc3)c2)c1`?
Answer: IC50 [1]: 0.048 µM; IC50 [2]: 0.587 µM

Question: How did the IC50 [1] turn out when `O=C(O)COc1ccc(Br)cc1/C=N/Nc1cccc2cccnc12` was run?
Answer: Its IC50 is 0.054 µM.

Question: What about the IC50 [2] of the same molecule?
Answer: The IC50 was 0.643 µM.

Question: Which IC50 [1] does the source give for `O=C(O)COc1ccc([N+](=O)[O-])cc1C(=O)c1cnn(-c2ccccc2)c1` here?
Answer: Its IC50 is 0.047 µM.

Question: And the IC50 [2]?
Answer: Its IC50 is 0.236 µM.

Question: Which IC50 [1] does the source give for `O=C(O)COc1ccc(Br)cc1C(=O)c1ccno1` here?
Answer: The IC50 was 0.391 µM.

Question: What about the IC50 [2] of the same molecule?
Answer: Its IC50 is 2.65 µM.

Question: Which IC50 [1] does the source give for `O=C(O)COc1ccc(Br)cc1C(=O)c1cnn(-c2ccc(Cl)cc2)c1` here?
Answer: Its IC50 is 0.0015 µM.

Question: What about the IC50 [2] of the same molecule?
Answer: Its IC50 is 0.017 µM.

Question: `O=C(O)COc1ccc(Br)cc1C(=O)c1ccccc1` was tested. Which IC50 [1] did it give?
Answer: The IC50 was 0.053 µM.

Question: And the IC50 [2]?
Answer: The IC50 was 0.437 µM.

Question: With `O=C(O)COc1ccc(Br)cc1C(=O)c1cnn(-c2ccccc2Br)c1` as the molecule, how does the IC50 [1] read?
Answer: Its IC50 is 0.0019 µM.

Question: And the IC50 [2]?
Answer: Its IC50 is 0.012 µM.

Question: With `O=Cc1cc(Br)ccc1OCC(=O)O` as the molecule, how does the IC50 [1] read?
Answer: Its IC50 is 0.124 µM.

Question: And the IC50 [2]?
Answer: The IC50 was 0.481 µM.

Question: Which results are given for `O=C(O)COc1ccc(-c2ccccc2)cc1C(=O)c1cnn(-c2ccccc2)c1`?
Answer: IC50 [1]: 0.042 µM; IC50 [2]: 0.485 µM

Question: With `O=C(O)COc1ccc(Br)cc1C(=O)c1cnn(-c2ccc(Br)cc2)c1` as the molecule, how does the IC50 [1] read?
Answer: Its IC50 is 0.0014 µM.

Question: And the IC50 [2]?
Answer: Its IC50 is 0.013 µM.

Question: `CC(=O)c1cc(Br)ccc1OCC(=O)O` was tested. Which IC50 [1] did it give?
Answer: The IC50 was 0.51 µM.

Question: What about the IC50 [2] of the same molecule?
Answer: The IC50 was 4.52 µM.

Question: For `O=C(O)COc1ccc(Br)cc1/C=N/Nc1nncc(-c2ccccc2)n1`, which IC50 [1] is on record?
Answer: The IC50 was 0.089 µM.

Question: And the IC50 [2]?
Answer: Its IC50 is 3.21 µM.

Question: `O=C(O)COc1ccc(Br)cc1/C=N/Nc1ccccn1` was tested. Which IC50 [1] did it give?
Answer: Its IC50 is 0.255 µM.

Question: And the IC50 [2]?
Answer: Its IC50 is 3.49 µM.

Question: What does the source list for `Cc1cc(C(=O)N/N=C/c2ccccc2OCC(=O)O)[nH]n1`?
Answer: IC50 [1]: 11.2 µM; IC50 [2]: > 100 µM

Question: What does the source list for `COc1ccc(-c2cnnc(N/N=C/c3ccccc3OCC(=O)O)n2)cc1`?
Answer: IC50 [1]: 1.58 µM; IC50 [2]: > 100 µM

Question: `O=C(O)COc1ccc(-c2cc(F)cc(F)c2)cc1C(=O)c1cnn(-c2ccccc2)c1` was tested. Which IC50 [1] did it give?
Answer: The IC50 was 0.013 µM.

Question: What about the IC50 [2] of the same molecule?
Answer: The IC50 was 0.147 µM.

Question: With `C[C@]12CCC(=O)C=C1CC[C@@H]1[C@@H]2[C@@H](O)C[C@@]2(C)[C@H]1CC[C@]2(O)C(=O)CO` [HYDROCORTISONE] as the molecule, how does the inhibition in vivo at 100 mg/kg (Mus musculus) read?
Answer: Its inhibition in vivo at 100 mg/kg is 94%.

Question: What does the source list for `O=C(O)COc1ccccc1C(=O)c1cnn(-c2ccccc2)c1`?
Answer: IC50 [1]: 0.51 µM; IC50 [2]: 5.35 µM
